From ChEMBL document CHEMBL1158828, “(+)-Myristinins A and D from Knema elegans, which inhibit DNA polymerase beta and cleave DNA” (J Nat Prod, 2005)
Activity calls are given as the source filed them. The calls are words filed in the database; no cut-off is given here.

What was measured:
[1] = molecular target: T1, DNA polymerase beta (Rattus norvegicus, UniProt P06766); assay: Activity of rat recombinant DNA polymerase beta using variable levels of DNA template-primer
[2] = molecular target: DNA polymerase beta (Rattus norvegicus) (UniProt P06766); assay: Activity of rat recombinant DNA polymerase beta using variable levels of dNTP concentration
[3] = test system: Escherichia coli; assay: Induction of strand scission activity in Escherichia coli supercoiled pSP64 DNA assessed as relaxation of DNA after 1 hr by agarose gel electrophoresis in presence of Cu2+
[4] = molecular target: T1, DNA polymerase beta; assay: Inhibition of rat recombinant DNA polymerase beta in presence of bovine serum albumin
[5] = Potentiation of bleomycin-induced cytotoxicity against mouse P388D1 cells assessed as reduction in cell viability at 9 uM after 6 hrs by trypan blue exclusion test; type: functional
[6] = test system: Escherichia coli; assay: Induction of strand scission activity in Escherichia coli supercoiled pSP64 DNA assessed as relaxation of DNA at 10 µM by agarose gel electrophoresis in presence of Cu2+
[7] = molecular target: T1, DNA polymerase beta; assay: Inhibition of rat recombinant DNA polymerase beta in absence of bovine serum albumin

Row | Ki [1] [µM] | Kii [2] [µM] | Kis [2] [µM] | Activity [3] | IC50 [4] [µM] | Activity [6] | IC50 [7] [µM] | Compound | Activity [5] [%]
1 | 12 | 0.8 | 23 | Dose-dependent effect | 4.3 | Active | 1.2 | O=C(CCCCCCCCc1ccccc1)c1c(O)cc(O)c([C@@H]2C[C@@H](c3ccc(O)cc3)Oc3cc(O)ccc32)c1O | 30
2 | 11 | 4.3 | 8.2 | Dose-dependent effect | 12 | Active | 2.7 | CCCCCCCCCCCC(=O)c1c(O)cc(O)c([C@@H]2C[C@@H](c3ccc(O)cc3)Oc3cc(O)ccc32)c1O | 30
